Laboratory results reported in patent publication US7566731B2, “Hetaryl substituted homotetramic and homotetronic acids and their use thereof as pesticides” (Bayer CropScience AG, priority 2001, dated 2009).

Assays:
Type in all cases: in vivo
[1] = test system: two-spotted spider mite (Tetranychus urticae); experiment: Tetranychus test (OP resistant/immersion treatment); settings: 100 ppm; bean plants immersed
Description: To prepare a suitable active compound preparation, 1 part by weight of active compound is mixed with the stated amounts of solvent and emulsifier and the concentrate is diluted to the desired concentration with emulsifier-containing water. Bean plants (Phaseolus vulgaris) which are severely infested by all stages of the two-spotted spider mite (Tetranychus urticae) are immersed into an active compound preparation of the desired concentration. After the desired time, the efficacy is determined in %. 100% means that all of the spider mites have been destroyed; 0% means that none of the spider mites have been destroyed.

[2] = test system: larvae of the mustard beetle (Phaedon cochleariae); experiment: Phaedon larvae test; settings: after 7 days, cabbage leaves immersed
Description: (§1) To prepare a suitable active compound preparation, 1 part by weight of active compound is mixed with the stated amounts of solvent and emulsifier and the concentrate is diluted to the desired concentration with emulsifier-containing water. Cabbage leaves (Brassica oleracea) are treated by immersing in the active compound preparation of the desired concentration and populated with larvae of the mustard beetle (Phaedon cochleariae) while the leaves are still moist. After the desired time, the destruction rate is determined in %. 100% means that all the beetle larvae have been destroyed; 0% means that none of the beetle larvae have been destroyed.

Meloidogyne incognita = experiment: Meloidogyne test; settings: active compound concentration 20 ppm; lettuce in sand
Description: To prepare a suitable active compound preparation, 1 part by weight of active compound is mixed with the stated amounts of solvent and emulsifier and the concentrate is diluted to the desired concentration with water. Containers are filled with sand, active compound solution, Meloidogyne incognita egg/larval suspension and lettuce seeds. The lettuce seeds germinate and the plantlets develop. The galls develop on the roots. After the desired time, the nematicidal efficacy is determined in % with reference to gall formation. 100% means that no galls were found; 0% means that the number of galls on the treated plants corresponds to that of the untreated control.

Sugar beet [3] = experiment: Pre-emergence test, Sugar beet; settings: 125 g ai/ha, after three weeks
Description: (§2) To prepare a suitable active compound preparation, 1 part by weight of active compound is mixed with the stated amount of solvent, the stated amount of emulsifier is added, and the concentrate is diluted with water to the desired concentration. Seeds of the test plants are sown in normal soil. After approximately 24 hours, the soil is sprayed with the active compound preparation in such a way that the active compound quantities desired in each case are applied per unit area. The concentration of the spray mixture is chosen such that the active compound quantities desired in each case are applied in 1000 l of water/ha. After three weeks, the degree of damage to the plants is scored in % damage in comparison with the development of the untreated control. The figures denote: • 0%=no effect (like untreated control) • 100%=total destruction

[4] = test system: green peach aphid (Myzus persicae); experiment: Myzus test; settings: 500 ppm; after 6 days; cabbage leaves immersed
Description: To prepare a suitable active compound preparation, 1 part by weight of active compound is mixed with the stated amounts of solvent and emulsifier and the concentrate is diluted to the desired concentration with emulsifier-containing water. Cabbage leaves (Brassica oleracea) which are severely infested by the green peach aphid (Myzus persicae) are treated by immersing into the active compound preparation of the desired concentration. After the desired time, the destruction rate is determined in %. 100% means that all of the aphids have been destroyed; 0% means that none of the aphids have been destroyed.

[5] = test system: fall armyworm caterpillars (Spodoptera frugiperda); experiment: Spodoptera frugiperda test; settings: 500 ppm; after 7 days; cabbage leaves immersed
Description: as §1, with “fall armyworm caterpillars (Spodoptera frugiperda)” for “mustard beetle (Phaedon cochleariae)”, “caterpillars” for “beetle larvae”

Sugar beet [6] = experiment: Post-emergence test, Sugar beet; settings: 125 g ai/ha, after three weeks
Description: as §2, with “Test plants which have a height” for “Seeds”, “5 to 15 cm” for “the test plants”, “are” for “are sown in normal soil. After approximately 24 hours, the soil is”

Matricaria = experiment: Pre-emergence test, Matricaria; settings: 125 g ai/ha, after three weeks
Description: as §2

Digitaria [7] = experiment: Post-emergence test, Digitaria; settings: 125 g ai/ha, after three weeks
Description: as §2, with “Test plants which have a height” for “Seeds”, “5 to 15 cm” for “the test plants”, “are” for “are sown in normal soil. After approximately 24 hours, the soil is”

Wheat = experiment: Post-emergence test, Wheat; settings: 125 g ai/ha, after three weeks
Description: as §2, with “Test plants which have a height” for “Seeds”, “5 to 15 cm” for “the test plants”, “are” for “are sown in normal soil. After approximately 24 hours, the soil is”

Lolium = experiment: Pre-emergence test, Lolium; settings: 125 g ai/ha, after three weeks
Description: as §2

Setaria [8] = experiment: Post-emergence test, Setaria; settings: 125 g ai/ha, after three weeks
Description: as §2, with “Test plants which have a height” for “Seeds”, “5 to 15 cm” for “the test plants”, “are” for “are sown in normal soil. After approximately 24 hours, the soil is”

Digitaria [9] = experiment: Pre-emergence test, Digitaria; settings: 125 g ai/ha, after three weeks
Description: as §2

Alopecurus = experiment: Post-emergence test, Alopecurus; settings: 125 g ai/ha, after three weeks
Description: as §2, with “Test plants which have a height” for “Seeds”, “5 to 15 cm” for “the test plants”, “are” for “are sown in normal soil. After approximately 24 hours, the soil is”

Avena fatua = experiment: Post-emergence test, Avena fatua; settings: 125 g ai/ha, after three weeks
Description: as §2, with “Test plants which have a height” for “Seeds”, “5 to 15 cm” for “the test plants”, “are” for “are sown in normal soil. After approximately 24 hours, the soil is”

Setaria [10] = experiment: Pre-emergence test, Setaria; settings: 125 g ai/ha, after three weeks
Description: as §2

Cc1sc(-c2ccc(Cl)cc2)nc1C1=C(O)CC(C)(C)NC1=O [Example I-1-a-1]
destruction rate (efficacy) [1]: 98%
destruction rate ([2]; 1000 ppm): 100%

CCOC(=O)OC1=C(c2nc(-c3ccc(Cl)cc3)sc2C)C(=O)NC(C)(C)C1 [Example I-1-c-1]
destruction rate (nematicidal efficacy with reference to gall formation) (Meloidogyne incognita): 100%

Cc1sc(-c2ccc(Cl)cc2)nc1C1=C(O)C(C)(C)C(C)(C)OC1=O [Example I-2-a-1]
destruction rate (efficacy) [1]: 100%
degree of damage to the plants (% damage), Sugar beet (Sugar beet [3]): 0%
destruction rate [4]: 90%
destruction rate (nematicidal efficacy with reference to gall formation) (Meloidogyne incognita): 100%
destruction rate [5]: 100%
degree of damage to the plants (% damage), Sugar beet (Sugar beet [6]): 0%
degree of damage to the plants (% damage), Matricaria (Matricaria): 95%
degree of damage to the plants (% damage), Digitaria (Digitaria [7]): 95%
degree of damage to the plants (% damage), Wheat (Wheat): 10%
degree of damage to the plants (% damage), Lolium (Lolium): 100%
degree of damage to the plants (% damage), Setaria (Setaria [8]): 100%
degree of damage to the plants (% damage), Digitaria (Digitaria [9]): 100%
degree of damage to the plants (% damage), Alopecurus (Alopecurus): 90%
degree of damage to the plants (% damage), Avena fatua (Avena fatua): 90%
degree of damage to the plants (% damage), Setaria (Setaria [10]): 100%
destruction rate ([2]; 500 ppm): 100%
